# Source: patent US11179348B2, “Combination comprising pterostilbene for the treatment of cancer” (FUNDACIÓN UNIVERSIDAD CATÓLICA DE VALENCIA SAN VICENTE …, priority 2015, dated 2021)
# Tests used:
# PC-3 cells = test: GSH levels and glutathione- and oxidative stress-related enzyme activities in PC-3 cells growing in vivo; set-up: species or system human; settings: PC-3, in vivo Pter, day 21
# Description: To measure enzyme activity, isolated tumor cells were homogenized in 0.1 M phosphate buffer (pH 7.2) at 4° C. GCL and GSS activities were measured as described previously (Obrador, E. et al. Hepatology 35, 74-81 (2002)). GPX (selenium dependent) activity was measured as described by Flohé and Gunzler (Flohe, L. & Gunzler, W. A. Methods Enzymol 105, 114-121 (1984)) using H2O2 as a substrate. GSR activity was determined as described by Akerboom and Sies (Akerboom, T. P. et al, Bull Eur Physiopathol Respir 17 Suppl, 221-227 (1981)). GGT activity was measured as described previously (Obrador, E. et al. Hepatology 35, 74-81 (2002)). GST activity was measured using an assay kit from Sigma. TXNRD activity, defined by the concentration of sodium-lipoate (disulfide) reduced to dehydrolipoate (dithiol) per milligram protein, was measured as previously described (Javvadi, P. et al. Cancer Res 70, 1941-1950 (2010)). SOD activity was measured as described by Flohé and Otting (Flohe, L. & Otting, F. Methods Enzymol 105, 93-104 (1984).) using 2 mM cyanide in the assay medium to distinguish mangano-type enzyme (SOD2) from the cuprozinc type (SOD1). CAT activity was analyzed as described by Aebi (Aebi, H. Methods Enzymol 105, 121-126 (1984)). NOX activity was measured by chemiluminescence following the methodology of Wind et al. (Wind, S. et al. Comparative pharmacology of chemically distinct NADPH oxidase inhibitors. Br J Pharmacol 161, 885-898 (2010)). Protein concentration was determined with the Pierce BCA protein assay (Fisher Scientific, Waltham, Mass.).
# GSH, GSSG, NADP^+ and NADPH Determination.
# GSH and GSSG were determined, following procedures previously described (Obrador, E. et al. PLoS One 9, e96466 (2014)), by LC/MS using the same equipment described above for pterostilbene determination. Cell processing was performed according to published methodology, where rapid N-ethylmaleimide derivatization was used to prevent GSH auto-oxidation (Asensi, M. et al. Anal Biochem 217, 323-328 (1994)). NADP^+ and NADPH were quantitated using an assay kit from Sigma (St. Louis, Mo.).
# Isolation of Tumor Cells from Mouse Xenografts Using Enzymatic Digestion and a double Ficoll gradient.
# To maximize the amount of isolated cells, avoiding the use of RFP-transfected cells and subsequent laser microdissection, an alternative methodology was set up. To maximize cell yield and viability the following combination of enzymes was used: collagenase III (200 U/ml; Sigma-Aldrich), DNase I (200 U/ml; Sigma-Aldrich) and trypsin (5 mg/ml; Invitrogen), and a non-enzymatic dissociation buffer (NEDB, Invitrogen). Briefly, mice were killed, and tumors were removed (avoiding skin, muscle and fat) into cold culture media and processed immediately. The tumors were minced into 1-3 mm fragments, which were then incubated with the dissociation solution (see above) for 30 min at 37° C. The tumor fragments were mixed up and down every 10 min using a […] micropipette with a tip cut to a diameter adapted to tissue fragment size. After each incubation period, the fragments were filtered through a […] nylon mesh cell strainer (BD Biosciences, San Diego, Calif., USA). The released cells were centrifuged at 1200 r.p.m. for 2 min and stored in cold CO2-independent medium with 30% FCS at […]. Fresh dissociation solution was added to the remaining tissue fragments for 30 min. Dissociation was stopped when no additional cells were released. The fragments were pushed through a sieve and all cells from all incubation periods were pooled and counted.
# The dissociated cells were layered onto a double Ficoll gradient (Histopaque; Sigma-Aldrich; densities 1.077 and 1.119) and spun at 700 g for 30 min at room temperature. Cells removed from both interfaces were pooled and washed two times in CO2-independent medium and stored at 4° C. Debris and red blood cell elimination was improved with the dual-density gradient. […]
# human melanoma = test: Effect of pterostilbene on human melanoma in vivo (growth, Ki-67, TUNEL, nuclear Nrf2)
# Description: Animals, Tumor Growth, and In Vivo Administration of Pter.
# Female nu/nu nude mice (6-8 weeks; Charles Rivers Laboratories, Wilmington, Mass.) were fed ad libitum on a standard diet (Harlan Teklad Animal Diets & Bedding, Madison, Wis.). Mice were kept on a 12-h-light/12-h-dark cycle with the room temperature at 22° C. […] For cancer xenograft experiments, mice were inoculated s.c. with 10×10^6 cancer cells per mouse. Tumor volume was calculated based on two dimensions, measured using calipers, and was expressed in mm^3 according to V=0.5a×b^2, where a and b are the long and the short diameters of the tumor, respectively. For histological analysis xenograft samples were first fixed in 4% formaldehyde, paraffin embedded, and stained as indicated below. Mice were monitored after inoculation, and tumor measurements were taken every 2 days. For pharmacokinetic and treatment studies Pterostilbene (Green Molecular S. L., Paterna, Spain) [dissolved in DMSO:ethanol (2:1), 50 mg Pter/ml] was administered i.v. through the jugular vein (where, previously, a permanent catheter was surgically fixed). Administration was slowly performed during 1-2 min.
# Monoclonal mouse anti-human HMB45 antibodies (Abcam, Cambridge, UK) were used for immunohistochemical detection of melanoma cells. For that purpose, the tumors were fixed and paraffin embedded as described above. Immunohistochemical analysis was applied to tissue slices (5 μm thick) following the standard methodology recommended by Abcam. A horseradish peroxidase-conjugated goat anti-mouse polyclonal (Abcam) was used as secondary antibody.
# Monoclonal mouse anti-human Ki-67 (Dako, Sant Cugat del Vallés, Spain) were used for immunohistochemical detection of the tumor growing fraction. Immunohistochemical analysis was applied to tissue slices (5 μm thick) following the standard methodology recommended by Dako. A biotin-conjugated goat anti-rabbit polyclonal (Dako) was used as secondary antibody.
# DNA strand breaks in apoptotic cells were assayed by using a direct TUNEL labeling assay (Boehringer, Mannheim, Germany) and fluorescence microscopy following manufacturer's methodology.
# Nrf2 Gene Transfer and Measurement.
# The Tet-Off Advanced Inducible Gene Expression System (Clontech, Palo Alto, Calif.) was used to insert the human Nrf2 gene and for transfection into melanoma cells following manufacturer's instructions. Tet-off cells stably expressed Tet-regulated pTRE-Tight-Nrf2 giving up to an increased Nrf2 gene expression (Tet-Nrf2 cells). To suppress Nrf2 protein levels Tet-Nrf2 cells were cultured in the presence of 2 mg tetracycline (Sigma)/10^6 cells. The NE-PER extraction kit from Thermo Scientific (Rockford, Ill.) was used for nuclear protein extraction according to the manufacturer's instructions. The protein content was determined by the Pierce BCA protein assay. The antibodies (mouse monoclonal primary antibodies) against Nrf2 were purchased from Abcam. A total of 50 mg of protein was boiled in Laemmli buffer and resolved by 12.0% SDS-PAGE. Proteins were transferred to a nitrocellulose membrane (Hybond C-extra, GE Healthcare Europe GmbH, Barcelona, Spain) and subjected to Western blotting. The blotted membrane was blocked for 1 h at room temperature in Tris-buffered saline (TBS) containing 5% (w/v) membrane-blocking reagent (non-fat dried milk). All antibody incubations were carried out at room temperature in TBS containing 1% membrane-blocking reagent. […] Protein bands were quantified using laser densitometry.
# human breast cancer = settings: 20 μM Pter, 24 h, in vitro; cited from earlier work
# [1] = tested on: glucocorticoid receptors (GR); test: GR content of murine B16-F1 cells by [3H]-labeled ligand whole-cell binding assay; settings: B16-F1-RFP tumors; day 15
# Description: Measurement of the GR Content of Cancer Cell Lines by [^3H]-Labeled Ligand Binding Assay. The GR content was measured by a whole-cell binding assay as previously described with some modifications (Harmon, J. M. & Thompson, E. B. […] Briefly 72 h-cultured melanoma cells were harvested, as indicated above, and resuspended in culture medium to a density of 5×10^6 cells/mL. […] Cells were then washed thrice in 5.0 mL of Hank's balanced salt solution and finally suspended in 1.5 mL of the same solution. […] The presence of at least 200-fold excess of unlabeled dexamethasone effectively competed out all of the binding of [^3H]-dexamethasone to specific GR. The binding of [^3H]-dexamethasone to specific GR was represented as the difference in disintegrations per minute per cell between those samples incubated with [^3H]-dexamethasone alone and those with at least 200-fold excess of unlabeled dexamethasone. Using the specific activity of [^3H]-dexamethasone, the number of receptors per cell was calculated, assuming that each receptor binds to one dexamethasone molecule.
# [2] = tumors of Pter-treated melanoma-bearing mice
compound,measurement,setting,value
"COc1cc(/C=C/c2ccc(O)cc2)cc(OC)c1 [Pter, trans-3,5-dimethoxy-4′-hydroxystilbene]",CAT,PC-3 cells,0.3 ± 0.1 mU/10^6 cells
same,GCL,PC-3 cells,27 ± 9 mU/10^6 cells
same,GSH,PC-3 cells,2.4 ± 1.1 nmol/10^6 cells
same,GSS,PC-3 cells,2.7 ± 0.7 mU/10^6 cells
same,GSSG,PC-3 cells,0.05 ± 0.02 nmol/10^6 cells
same,SOD1,PC-3 cells,0.05 ± 0.01 U/10^6 cells
same,SOD2,PC-3 cells,0.01 ± 0.005 U/10^6 cells
same,melanoma growth inhibition at lower dose,human melanoma; 20 mg/kg vs 30 mg/kg,less effective
same,melanoma growth inhibition at higher dose,human melanoma; 40 mg/kg vs 30 mg/kg,no further inhibition
same,nuclear Nrf2 in melanoma cells,human melanoma; in vivo Pter-treated vs control melanoma-bearing mice (FIG. 4C),decreased
same,apoptotic cell death in tumors (TUNEL),human melanoma; [2],increase
same,melanoma cell proliferation in tumors (Ki-67 staining),human melanoma; [2],decrease
same,decrease in tumor cell viability,human breast cancer,~25%
same,GR number (binding sites/cell),[1],112 ± 16 10^3 GR/cell
